Data taken from ChEMBL document CHEMBL4507289, “Data for DCP probe GSM1” (2021).
Calls of active or inactive are those of the source. No cut-off for these calls is given here.

Columns and labels:
[1] = biological target: 5-hydroxytryptamine receptor 1A (Homo sapiens) (UniProt P08908); details: Compound concentration 10.0 uM
[2] = biological target: Cyclin-dependent kinase 4 (Homo sapiens) (UniProt P11802); details: Compound concentration 1000.0 nM
[3] = biological target: Serine/threonine-protein kinase SIK2 (Homo sapiens) (UniProt Q9H0K1); details: Compound concentration 1000.0 nM
[4] = biological target: Atypical kinase COQ8B, mitochondrial (Homo sapiens) (UniProt Q96D53); details: Compound concentration 1000.0 nM
[5] = biological target: Rho-associated protein kinase 2 (Homo sapiens) (UniProt O75116); details: Compound concentration 1000.0 nM
[6] = biological target: Serine/threonine-protein kinase pim-3 (Homo sapiens) (UniProt Q86V86); details: Compound concentration 1000.0 nM
[7] = biological target: 5-hydroxytryptamine receptor 6 (Homo sapiens) (UniProt P50406); details: Compound concentration 10.0 uM
[8] = biological target: Mitogen-activated protein kinase 3 (Homo sapiens) (UniProt P27361); details: Compound concentration 1000.0 nM
[9] = biological target: Histamine H1 receptor (Homo sapiens) (UniProt P35367); details: Compound concentration 10.0 uM
[10] = biological target: Alpha-2A adrenergic receptor (Homo sapiens) (UniProt P08913); details: Compound concentration 10.0 uM
[11] = biological target: Ephrin type-A receptor 5 (Homo sapiens) (UniProt P54756); details: Compound concentration 1000.0 nM
[12] = biological target: Protein kinase C theta type (Homo sapiens) (UniProt Q04759); details: Compound concentration 1000.0 nM
[13] = biological target: Tyrosine-protein kinase ABL1 (Homo sapiens) (UniProt P00519); details: Compound concentration 1000.0 nM
[14] = test system: Leucine-rich repeat serine/threonine-protein kinase 2 (Homo sapiens), Q5S007 [G2019S]; details: Compound concentration 1000.0 nM
[15] = biological target: Mitogen-activated protein kinase kinase kinase 4 (Homo sapiens) (UniProt Q9Y6R4); details: Compound concentration 1000.0 nM
[16] = biological target: Non-receptor tyrosine-protein kinase TNK1 (Homo sapiens) (UniProt Q13470); details: Compound concentration 1000.0 nM
[17] = biological target: Serine/threonine-protein kinase Nek4 (Homo sapiens) (UniProt P51957); details: Compound concentration 1000.0 nM
[18] = biological target: Mitogen-activated protein kinase 14 (Homo sapiens) (UniProt Q16539); details: Compound concentration 1000.0 nM
[19] = test system: Epidermal growth factor receptor (Homo sapiens), P00533 [G719S]; details: Compound concentration 1000.0 nM
[20] = test system: Epidermal growth factor receptor (Homo sapiens), P00533 [T790M]; details: Compound concentration 1000.0 nM
[21] = biological target: Mitogen-activated protein kinase kinase kinase 5 (Homo sapiens) (UniProt Q99683); details: Compound concentration 1000.0 nM
[22] = biological target: Serine/threonine-protein kinase WNK2 (Homo sapiens) (UniProt Q9Y3S1); details: Compound concentration 1000.0 nM
[23] = test system: Receptor-type tyrosine-protein kinase FLT3 (Homo sapiens), P36888 [K663Q]; details: Compound concentration 1000.0 nM
[24] = biological target: Ribosomal protein S6 kinase alpha-3 (Homo sapiens) (UniProt P51812); details: Compound concentration 1000.0 nM
[25] = biological target: RAC-alpha serine/threonine-protein kinase (Homo sapiens) (UniProt P31749); details: Compound concentration 1000.0 nM
[26] = test system: Phosphatidylinositol 4,5-bisphosphate 3-kinase catalytic subunit alpha isoform (Homo sapiens), P42336 [Q546K]; details: Compound concentration 1000.0 nM
[27] = test system: Tyrosine-protein kinase ABL1 (Homo sapiens), P00519 [T315I]; details: Compound concentration 1000.0 nM
[28] = biological target: Proto-oncogene tyrosine-protein kinase Src (Homo sapiens) (UniProt P12931); details: Compound concentration 1000.0 nM
[29] = biological target: Cyclin-dependent kinase 11A (Homo sapiens) (UniProt Q9UQ88); details: Compound concentration 1000.0 nM
[30] = biological target: Serine/threonine-protein kinase TAO1 (Homo sapiens) (UniProt Q7L7X3); details: Compound concentration 1000.0 nM
Notch receptor = Notch receptor (Homo sapiens, UniProt P46531+Q9UM47+Q04721+Q99466); assay: Notch assay; assay type: protein assay
[31] = biological target: Serine/threonine-protein kinase Sgk1 (Homo sapiens) (UniProt O00141); details: Compound concentration 1000.0 nM
[32] = biological target: Receptor-interacting serine/threonine-protein kinase 4 (Homo sapiens) (UniProt P57078); details: Compound concentration 1000.0 nM
[33] = biological target: cAMP-dependent protein kinase catalytic subunit PRKX (Homo sapiens) (UniProt P51817); details: Compound concentration 1000.0 nM
[34] = biological target: Mast/stem cell growth factor receptor Kit (Homo sapiens) (UniProt P10721); details: Compound concentration 1000.0 nM
[35] = biological target: Mitogen-activated protein kinase kinase kinase 19 (Homo sapiens) (UniProt Q56UN5); details: Compound concentration 1000.0 nM
[36] = biological target: Mitogen-activated protein kinase 10 (Homo sapiens) (UniProt P53779); details: Compound concentration 1000.0 nM
[37] = biological target: Serine/threonine-protein kinase BRSK1 (Homo sapiens) (UniProt Q8TDC3); details: Compound concentration 1000.0 nM
[38] = biological target: Serine/threonine-protein kinase N1 (Homo sapiens) (UniProt Q16512); details: Compound concentration 1000.0 nM
[39] = biological target: Bone morphogenetic protein receptor type-1A (Homo sapiens) (UniProt P36894); details: Compound concentration 1000.0 nM
[40] = biological target: Amyloid-beta precursor protein (Homo sapiens, UniProt P05067); assay: Aβ40 inhibition assay
[41] = biological target: Serine/threonine-protein kinase MARK1 (Homo sapiens) (UniProt Q9P0L2); details: Compound concentration 1000.0 nM
[42] = biological target: Ephrin type-A receptor 2 (Homo sapiens) (UniProt P29317); details: Compound concentration 1000.0 nM
[43] = biological target: cGMP-dependent protein kinase 1 (Homo sapiens) (UniProt Q13976); details: Compound concentration 1000.0 nM
[44] = biological target: Calcium/calmodulin-dependent protein kinase type 1 (Homo sapiens) (UniProt Q14012); details: Compound concentration 1000.0 nM

Sequence of Atypical kinase COQ8B, mitochondrial (Homo sapiens) (Q96D53 whole entry): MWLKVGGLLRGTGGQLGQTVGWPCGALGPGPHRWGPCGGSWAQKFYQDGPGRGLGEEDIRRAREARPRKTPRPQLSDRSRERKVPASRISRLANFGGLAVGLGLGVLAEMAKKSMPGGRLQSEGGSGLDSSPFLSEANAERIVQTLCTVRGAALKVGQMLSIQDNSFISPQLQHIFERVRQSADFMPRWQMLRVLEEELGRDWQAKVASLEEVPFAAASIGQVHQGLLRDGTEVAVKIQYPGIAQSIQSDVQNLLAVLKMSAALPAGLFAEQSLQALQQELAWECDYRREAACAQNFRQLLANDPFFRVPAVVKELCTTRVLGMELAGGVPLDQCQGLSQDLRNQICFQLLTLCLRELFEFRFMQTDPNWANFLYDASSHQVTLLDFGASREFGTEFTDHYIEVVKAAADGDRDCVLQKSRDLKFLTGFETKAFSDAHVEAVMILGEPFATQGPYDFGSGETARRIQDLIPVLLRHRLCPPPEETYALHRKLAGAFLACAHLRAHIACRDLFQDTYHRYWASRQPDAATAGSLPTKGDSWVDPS
Sequence of Serine/threonine-protein kinase Sgk1 (Homo sapiens) (O00141 whole entry): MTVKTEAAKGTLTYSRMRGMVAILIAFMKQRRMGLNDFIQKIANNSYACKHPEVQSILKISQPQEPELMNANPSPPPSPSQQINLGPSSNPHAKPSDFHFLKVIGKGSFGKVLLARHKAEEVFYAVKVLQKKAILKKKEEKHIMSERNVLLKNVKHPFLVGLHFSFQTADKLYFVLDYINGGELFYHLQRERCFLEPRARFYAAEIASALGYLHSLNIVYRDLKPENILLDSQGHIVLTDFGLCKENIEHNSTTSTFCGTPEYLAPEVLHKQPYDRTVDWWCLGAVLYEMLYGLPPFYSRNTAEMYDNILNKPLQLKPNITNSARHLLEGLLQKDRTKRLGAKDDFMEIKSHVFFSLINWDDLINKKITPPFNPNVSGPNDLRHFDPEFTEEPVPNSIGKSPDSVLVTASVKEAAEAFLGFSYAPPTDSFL
Sequence of Histamine H1 receptor (Homo sapiens) (P35367 whole entry): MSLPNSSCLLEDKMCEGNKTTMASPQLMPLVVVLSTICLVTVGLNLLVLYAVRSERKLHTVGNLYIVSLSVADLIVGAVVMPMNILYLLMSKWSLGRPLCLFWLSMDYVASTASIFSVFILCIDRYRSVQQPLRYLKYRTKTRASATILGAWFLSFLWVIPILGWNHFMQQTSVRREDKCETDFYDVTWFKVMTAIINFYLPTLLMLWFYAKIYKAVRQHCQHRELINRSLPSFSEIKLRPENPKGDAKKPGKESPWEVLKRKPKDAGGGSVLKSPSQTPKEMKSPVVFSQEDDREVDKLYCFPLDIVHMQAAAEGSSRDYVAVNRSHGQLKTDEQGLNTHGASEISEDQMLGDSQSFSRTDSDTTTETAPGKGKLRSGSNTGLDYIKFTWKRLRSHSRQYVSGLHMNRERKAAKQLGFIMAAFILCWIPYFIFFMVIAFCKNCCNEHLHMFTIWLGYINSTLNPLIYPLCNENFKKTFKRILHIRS
Sequence of cGMP-dependent protein kinase 1 (Homo sapiens) (Q13976 whole entry): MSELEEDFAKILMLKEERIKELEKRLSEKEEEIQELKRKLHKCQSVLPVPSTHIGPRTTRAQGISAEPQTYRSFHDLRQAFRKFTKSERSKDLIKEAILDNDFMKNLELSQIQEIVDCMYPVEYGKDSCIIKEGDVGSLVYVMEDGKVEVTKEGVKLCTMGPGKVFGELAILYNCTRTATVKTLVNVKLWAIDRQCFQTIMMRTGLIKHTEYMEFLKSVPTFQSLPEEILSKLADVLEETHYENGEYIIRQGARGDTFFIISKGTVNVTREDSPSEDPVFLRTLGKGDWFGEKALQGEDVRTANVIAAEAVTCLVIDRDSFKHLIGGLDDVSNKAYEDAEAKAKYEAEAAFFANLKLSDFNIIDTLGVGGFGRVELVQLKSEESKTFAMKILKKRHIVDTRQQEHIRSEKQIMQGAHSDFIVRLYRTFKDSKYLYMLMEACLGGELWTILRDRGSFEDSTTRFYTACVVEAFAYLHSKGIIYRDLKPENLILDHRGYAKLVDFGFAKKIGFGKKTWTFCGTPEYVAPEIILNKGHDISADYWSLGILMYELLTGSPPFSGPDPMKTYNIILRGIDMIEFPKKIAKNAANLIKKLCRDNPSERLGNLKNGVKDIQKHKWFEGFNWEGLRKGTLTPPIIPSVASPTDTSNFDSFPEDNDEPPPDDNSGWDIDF
Sequence of Serine/threonine-protein kinase WNK2 (Homo sapiens) (Q9Y3S1 whole entry): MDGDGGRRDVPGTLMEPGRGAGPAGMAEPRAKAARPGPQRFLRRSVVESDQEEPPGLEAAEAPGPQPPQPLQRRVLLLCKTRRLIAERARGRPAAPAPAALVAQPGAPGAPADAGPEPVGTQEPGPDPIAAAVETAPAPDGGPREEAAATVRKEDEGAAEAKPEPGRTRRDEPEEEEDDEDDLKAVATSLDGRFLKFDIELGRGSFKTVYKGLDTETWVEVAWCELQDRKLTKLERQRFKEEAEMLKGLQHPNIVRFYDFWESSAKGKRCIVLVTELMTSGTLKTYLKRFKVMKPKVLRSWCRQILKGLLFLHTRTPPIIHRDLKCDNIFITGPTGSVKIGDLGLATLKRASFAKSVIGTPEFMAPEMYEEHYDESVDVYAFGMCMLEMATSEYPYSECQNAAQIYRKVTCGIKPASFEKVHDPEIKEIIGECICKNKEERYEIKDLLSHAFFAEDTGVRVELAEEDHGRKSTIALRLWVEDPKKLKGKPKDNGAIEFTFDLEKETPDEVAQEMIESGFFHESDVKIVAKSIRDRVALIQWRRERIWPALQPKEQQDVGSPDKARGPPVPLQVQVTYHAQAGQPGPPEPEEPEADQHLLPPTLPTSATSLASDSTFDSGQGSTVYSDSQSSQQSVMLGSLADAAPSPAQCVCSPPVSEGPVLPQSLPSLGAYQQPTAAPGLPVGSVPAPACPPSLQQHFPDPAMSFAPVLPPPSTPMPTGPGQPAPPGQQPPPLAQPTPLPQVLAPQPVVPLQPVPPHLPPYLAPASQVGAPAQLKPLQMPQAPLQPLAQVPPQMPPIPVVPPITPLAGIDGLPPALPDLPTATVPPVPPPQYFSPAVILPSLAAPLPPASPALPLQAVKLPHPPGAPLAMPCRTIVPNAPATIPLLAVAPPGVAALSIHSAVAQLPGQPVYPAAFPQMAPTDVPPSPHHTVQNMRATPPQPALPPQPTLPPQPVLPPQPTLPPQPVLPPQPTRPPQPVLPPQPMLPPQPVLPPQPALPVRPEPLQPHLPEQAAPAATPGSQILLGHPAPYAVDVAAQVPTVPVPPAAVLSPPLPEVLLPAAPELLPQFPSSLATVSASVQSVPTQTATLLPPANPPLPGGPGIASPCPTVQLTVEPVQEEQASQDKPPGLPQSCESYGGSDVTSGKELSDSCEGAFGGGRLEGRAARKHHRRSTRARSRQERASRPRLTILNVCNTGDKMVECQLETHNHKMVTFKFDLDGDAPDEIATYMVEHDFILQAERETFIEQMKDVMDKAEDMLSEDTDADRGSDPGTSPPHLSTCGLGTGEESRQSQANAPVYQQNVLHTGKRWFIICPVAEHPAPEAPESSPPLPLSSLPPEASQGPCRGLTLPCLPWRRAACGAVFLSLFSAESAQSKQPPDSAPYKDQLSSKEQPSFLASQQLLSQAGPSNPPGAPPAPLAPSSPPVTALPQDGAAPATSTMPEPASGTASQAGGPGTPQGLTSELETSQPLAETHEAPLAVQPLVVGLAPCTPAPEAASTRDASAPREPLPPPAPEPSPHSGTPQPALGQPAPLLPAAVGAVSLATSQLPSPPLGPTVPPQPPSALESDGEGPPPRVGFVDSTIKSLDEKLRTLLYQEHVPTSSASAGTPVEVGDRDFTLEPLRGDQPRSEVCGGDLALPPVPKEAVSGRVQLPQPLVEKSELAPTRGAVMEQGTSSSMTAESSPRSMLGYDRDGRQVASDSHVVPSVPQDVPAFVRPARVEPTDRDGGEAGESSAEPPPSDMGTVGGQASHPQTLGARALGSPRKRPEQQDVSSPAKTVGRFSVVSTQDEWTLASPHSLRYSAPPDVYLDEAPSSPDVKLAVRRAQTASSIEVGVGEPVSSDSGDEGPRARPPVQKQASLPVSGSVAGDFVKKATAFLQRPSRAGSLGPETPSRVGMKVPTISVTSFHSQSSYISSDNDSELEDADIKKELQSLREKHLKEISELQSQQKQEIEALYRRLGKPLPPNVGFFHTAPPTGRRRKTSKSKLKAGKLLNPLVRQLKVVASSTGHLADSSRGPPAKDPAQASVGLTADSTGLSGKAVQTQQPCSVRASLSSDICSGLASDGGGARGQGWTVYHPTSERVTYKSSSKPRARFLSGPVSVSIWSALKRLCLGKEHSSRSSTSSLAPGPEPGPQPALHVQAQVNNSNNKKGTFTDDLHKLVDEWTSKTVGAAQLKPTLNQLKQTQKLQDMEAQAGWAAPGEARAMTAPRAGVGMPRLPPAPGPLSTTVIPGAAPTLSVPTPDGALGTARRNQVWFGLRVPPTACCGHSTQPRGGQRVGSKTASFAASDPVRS
Sequence of Cyclin-dependent kinase 4 (Homo sapiens) (P11802 whole entry): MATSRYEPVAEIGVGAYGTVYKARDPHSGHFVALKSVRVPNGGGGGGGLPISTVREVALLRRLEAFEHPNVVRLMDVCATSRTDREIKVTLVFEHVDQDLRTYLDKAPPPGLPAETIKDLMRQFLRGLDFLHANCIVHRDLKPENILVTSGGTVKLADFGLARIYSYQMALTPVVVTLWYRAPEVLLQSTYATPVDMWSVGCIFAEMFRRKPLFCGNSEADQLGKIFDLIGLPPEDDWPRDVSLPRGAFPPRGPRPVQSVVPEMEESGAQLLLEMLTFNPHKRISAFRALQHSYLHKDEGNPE

Structure (SMILES): COc1cc(-c2cn([C@H]3CCc4c(F)cccc4N(CC(F)(F)F)C3=O)nn2)ccc1-n1cnc(C)c1
- inhibition [1]: 19.4%
- residual activity [2]: 100%
- residual activity [3]: 100%
- residual activity [4]: 77%
- residual activity [5]: 100%
- residual activity [6]: 90%
- inhibition [7]: -4.64%
- residual activity [8]: 100%
- inhibition [9]: 7.55%
- inhibition [10]: 35%
- residual activity [11]: 100%
- residual activity [12]: 89%
- residual activity [13]: 100%
- residual activity [14]: 100%
- residual activity [15]: 94%
- residual activity [16]: 100%
- residual activity [17]: 100%
- residual activity [18]: 100%
- residual activity [19]: 90%
- residual activity [20]: 83%
- residual activity [21]: 100%
- residual activity [22]: 53%
- residual activity [23]: 92%
- residual activity [24]: 100%
- residual activity [25]: 96%
- residual activity [26]: 90%
- residual activity [27]: 85%
- residual activity [28]: 93%
- residual activity [29]: 100%
- residual activity [30]: 100%
- IC50 (Notch receptor): 397.8 µM
- residual activity [31]: 90%
- residual activity [32]: 56%
- residual activity [33]: 100%
- residual activity [34]: 100%
- residual activity [35]: 100%
- residual activity [36]: 72%
- residual activity [37]: 92%
- residual activity [38]: 96%
- residual activity [39]: 100%
- IC50 [40]: 0.131 µM (active)
- residual activity [41]: 100%
- residual activity [42]: 100%
- residual activity [43]: 100%
- residual activity [44]: 100%

Structure (SMILES): COc1cc(-c2cn([C@H]3CCc4ccccc4N(CC(F)(F)F)C3=O)nn2)ccc1-n1ccc(C)n1
- inhibition [1]: 1.18%
- residual activity [2]: 86%
- residual activity [3]: 100%
- residual activity [4]: 100%
- residual activity [5]: 100%
- residual activity [6]: 100%
- inhibition [7]: -1.39%
- residual activity [8]: 100%
- inhibition [9]: 9.72%
- inhibition [10]: 22.2%
- residual activity [11]: 100%
- residual activity [12]: 94%
- residual activity [13]: 75%
- residual activity [14]: 100%
- residual activity [15]: 85%
- residual activity [16]: 100%
- residual activity [17]: 100%
- residual activity [18]: 94%
- residual activity [19]: 100%
- residual activity [20]: 59%
- residual activity [21]: 100%
- residual activity [22]: 87%
- residual activity [23]: 100%
- residual activity [24]: 100%
- residual activity [25]: 97%
- residual activity [26]: 97%
- residual activity [27]: 77%
- residual activity [28]: 100%
- residual activity [29]: 97%
- residual activity [30]: 92%
- IC50 (Notch receptor): > 50 µM
- residual activity [31]: 88%
- residual activity [32]: 52%
- residual activity [33]: 95%
- residual activity [34]: 96%
- residual activity [35]: 95%
- residual activity [36]: 61%
- residual activity [37]: 81%
- residual activity [38]: 100%
- residual activity [39]: 89%
- IC50 [40]: > 10 µM (not active)
- residual activity [41]: 99%
- residual activity [42]: 100%
- residual activity [43]: 100%
- residual activity [44]: 100%
